The values below come from ChEMBL document CHEMBL3046090, “Mechanism of the Phytotoxic Action of Herbicidal N-Isobutyl-N-(4-substituted benzyl)-4-halo-2-pentenamides” (J Pestic Sci, 2002).

Data set [1] relates to Lathyrus oleraceus. In words: Inhibition of Succinate-cytochrome c reductase in Pisum sativum (pea) mitochondrial respiratory-chain electron-transport system at 100 uM.
Data set [2] has as its system Gossypium hirsutum. Briefly: Phytotoxicity against Gossypium hirsutum (cotton) seedlings assessed as moderate darkening measured under dark conditions at 100 uM. It is filed as functional, organism-based.
Data set [3] deals with Gossypium hirsutum. In words: Phytotoxicity against Gossypium hirsutum (cotton) seedlings assessed as cotyledons are killed but stems are not wilted measured under light conditions at 100 uM. Type of data set: functional, organism-based.
Data set [4] in a line: Dissociation constant, pKa of the compound. Type of data set: physicochemical.
The subject of data set [5] is Gossypium hirsutum. In words: Phytotoxicity against Gossypium hirsutum (cotton) seedlings assessed as damage measured under dark conditions at 100 uM. It is filed as functional, organism-based.
Data set [6] has as its system Gossypium hirsutum. Briefly: Phytotoxicity against Gossypium hirsutum (cotton) seedlings assessed as complete killing measured under light conditions at 100 uM. Type of data set: functional, organism-based.
Data set [7] deals with Gossypium hirsutum. Briefly: Phytotoxicity against Gossypium hirsutum (cotton) seedlings assessed as cotyledons are damaged with green spots measured under light conditions at 100 uM. Type of data set: functional.
Data set [8] concerns Gossypium hirsutum. In words: Phytotoxicity against Gossypium hirsutum (cotton) seedlings assessed as light darkening measured under dark conditions at 100 uM. Type of data set: functional, organism-based.
In data set [9] the test system is Gossypium hirsutum. In words: Phytotoxicity against Gossypium hirsutum (cotton) seedlings assessed as heavily dark-browning with wrinkling measured under dark conditions at 100 uM. Type of data set: functional, organism-based.
Data set [10] relates to Lathyrus oleraceus. Briefly: Inhibition of Succinate-cytochrome c reductase in Pisum sativum (pea) mitochondrial respiratory-chain electron-transport system at 0.1 uM.
Data set [11] relates to Gossypium hirsutum. In words: Phytotoxicity against Gossypium hirsutum (cotton) seedlings assessed as cotyledons are killed and stems are partially survived measured under light conditions at 100 uM. Type of data set: functional, organism-based.

Calls of active or inactive are those of the source. No cut-off for these calls is given here.

In general, inhibition refers to the percentage by which the read-out fell short of the control. For orientation: pKa means the negative logarithm of the acid dissociation constant.

Turning to `CC(Cl)/C=C/C(=O)N(Cc1ccc(Cl)cc1)CC(C)C` (stereo not given), the inhibition in the data set with Lathyrus oleraceus [1] was 0%. In addition, the outcome with Gossypium hirsutum [2] and with Gossypium hirsutum [3] was Active.

Regarding `CCOc1cc(Oc2ccc(C(F)(F)F)cc2Cl)ccc1[N+](=O)[O-]` [OXYFLUORFEN], in data set [4], the pKa was determined as 7.63.

Compound `O=C1C2=C(CCCC2)C(=O)N1c1ccc(Cl)cc1` [CHLOROPHTHALIUM] had a pKa in data set [4] of 6.43.

Take `COC(=O)CSc1cc(/N=c2\sc(=O)n3n2CCCC3)c(F)cc1Cl`: in the data set with Gossypium hirsutum [5], the result was inactive. Besides, in the data set on Gossypium hirsutum [6], the outcome was Active.

As to `CC(Cl)/C=C/C(=O)N(Cc1ccc(S(C)(=O)=O)cc1)CC(C)C` (stereo not given), in the data set on Gossypium hirsutum [7], the Activity was determined as 50%. Besides, in the data set with Gossypium hirsutum [8], the outcome was Active. This compound had an inhibition in the data set with Lathyrus oleraceus [1] of 5.8%.

As to `O=[N+]([O-])c1ccc(Oc2ccc(Cl)cc2Cl)cc1` [NITROFEN], the Activity in the data set with Gossypium hirsutum [7] came out at 10%. Besides, the outcome with Gossypium hirsutum [5] was inactive.

Take `CC(Br)/C=C/C(=O)N(Cc1ccc(Cl)cc1)CC(C)C` (stereo not given): the inhibition in the data set with Lathyrus oleraceus [1] came out at 0%. Further, the outcome in the data set on Gossypium hirsutum [9] and in the data set on Gossypium hirsutum [3] was Active.

Turning to `CC(Cl)/C=C/C(=O)N(Cc1ccc(C(F)(F)F)cc1)CC(C)C` (stereo not given), the Activity with Gossypium hirsutum [7] was determined as 10%. This compound displayed an inhibition in the data set with Lathyrus oleraceus [1] of 1.2%. Further, the outcome in the data set on Gossypium hirsutum [2] was Active.

In turn, `CC(Cl)/C=C/C(=O)N(Cc1ccc(C#N)cc1)CC(C)C` (stereo not given) returned a pKa in data set [4] of 4.82. In addition, the inhibition with Lathyrus oleraceus [1] amounted to 4.6%. The outcome in the data set with Gossypium hirsutum [6] and in the data set on Gossypium hirsutum [9] was Active.

As to `CCCCCC[C@H]1C(=O)O[C@H](C)[C@H](NC(=O)c2cccc(NC=O)c2O)C(=O)O[C@@H](C)[C@@H]1OC(=O)CC(C)C`, the inhibition in the data set on Lathyrus oleraceus [10] was determined as 100%.

As for `CC(C)Oc1cc(-n2nc(C(C)(C)C)oc2=O)c(Cl)cc1Cl`, the outcome with Gossypium hirsutum [11] was Active. Besides, in the data set with Gossypium hirsutum [5], the result was inactive.
